IC50 data for ten compounds are collected here from ChEMBL document CHEMBL1150852, “Coumarins isolated from Angelica gigas inhibit acetylcholinesterase: structure-activity relationships” (J Nat Prod, 2001).

For the test, the target named is Acetylcholinesterase (Homo sapiens, UniProt P22303). The test is described as follows: Inhibition of AChE by spectrophotometry.
Sequence of Acetylcholinesterase (P22303 whole entry): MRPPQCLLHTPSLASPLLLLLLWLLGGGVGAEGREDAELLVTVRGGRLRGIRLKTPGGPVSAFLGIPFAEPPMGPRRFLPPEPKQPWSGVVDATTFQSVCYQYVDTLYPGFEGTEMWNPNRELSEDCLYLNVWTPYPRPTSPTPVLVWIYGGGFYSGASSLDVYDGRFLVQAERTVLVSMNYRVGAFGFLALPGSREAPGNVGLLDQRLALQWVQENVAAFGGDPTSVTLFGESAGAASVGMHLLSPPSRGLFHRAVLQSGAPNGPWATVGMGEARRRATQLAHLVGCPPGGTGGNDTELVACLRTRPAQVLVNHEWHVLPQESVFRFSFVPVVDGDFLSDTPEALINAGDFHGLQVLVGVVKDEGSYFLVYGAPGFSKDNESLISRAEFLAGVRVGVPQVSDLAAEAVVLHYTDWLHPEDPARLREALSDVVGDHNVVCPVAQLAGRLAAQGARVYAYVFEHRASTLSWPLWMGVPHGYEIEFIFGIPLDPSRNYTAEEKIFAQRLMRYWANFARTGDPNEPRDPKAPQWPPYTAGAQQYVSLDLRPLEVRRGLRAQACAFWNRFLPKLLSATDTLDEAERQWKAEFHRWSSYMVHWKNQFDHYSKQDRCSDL
Broadly, the IC50 is the concentration needed to halve the response being measured. Consider `C=C(C)[C@H](O)Cc1cc2ccc(=O)oc2cc1O`, for which it took 130 µM to reach half-maximal inhibition (IC50). In the case of `COc1cc(OCC=C(C)C)c2ccc(=O)oc2c1`, half-maximal inhibition (IC50) was put at 240 µM. Under `CC(C)=CC(=O)O[C@H]1Cc2cc3ccc(=O)oc3cc2OC1(C)C` [DECURSIN] stands 390 µM; under `CC(C)=CCc1cc2ccc(=O)oc2cc1O` [DEMETHYLSUBEROSIN], 2400 µM; under `CC(C)=CCOc1c2ccoc2cc2oc(=O)ccc12` [ISOIMPERATORIN], 69 µM. Under `CC(C)(O)[C@@H]1Cc2cc3ccc(=O)oc3cc2O1` [MARMESIN] stands 67 µM.

The compound `COc1c2occc2cc2ccc(=O)oc12` [METHOXSALEN] displayed an IC50 of 54 µM.

The compound `CC(C)(O[C@@H]1O[C@H](CO)[C@@H](O)[C@H](O)[C@H]1O)[C@H]1Cc2cc3ccc(=O)oc3cc2O1` [NODAKENIN] showed an IC50 of 68 µM. As for `CC(C)(O)C(=O)Cc1cc2ccc(=O)oc2cc1O` [PEUCEDANONE], 180 µM corresponded to half-maximal inhibition (IC50). For the compound `CC1(C)C=Cc2cc3ccc(=O)oc3cc2O1` [XANTHYLETIN], the IC50 was 150 µM.
